Experimental findings from ChEMBL document CHEMBL1201862, “PubChem BioAssay data set” (2004) are described below.

What all share (test): NCI anticancer screen, dose series, 48 h
For assay [1], the system named is RXF 393.
The subject of assay [2] is CCRF-CEM.
Assay [3] has as its system HOP-62.
The test system of assay [4] is LOX IMVI.
The subject of assay [5] is SR.
The test system of assay [6] is SF-295.
Assay [7] concerns T47D.
Assay [8] deals with SW-620.
In assay [9] the test system is SNB-75.
Assay [10] has as its system M14.
Assay [11] has as its system NCI/ADR-RES.
Assay [12] concerns SK-OV-3.
Assay [13] has as its system U-251.
The subject of assay [14] is OVCAR-3.
Assay [15] deals with OVCAR-5.
The test system of assay [16] is A498.
In assay [17] the test system is HT-29.
Assay [18] concerns HCT-116.
Assay [19] has as its system IGROV-1.
Assay [20] deals with SN12C.

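Interpolation was linear, between the two tested concentrations surrounding the appropriate level; five concentrations were tested over 48 hours in 96-well plates. Here, GI50 denotes the concentration required for 50% inhibition of growth.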 The source made the active and inactive calls. Cut-off read from the data, not from the text of the source: active = GI50 up to about 1.1 µM and inactive = higher.

Regarding `Cn1c2ccccc2n2c3nc4ccccc4nc3c(C#N)c12`, the GI50 is > 42.3 µM (inactive) in assay [1]; 60 µM (inactive) in assay [2]; 10 µM (inactive) in [3]; > 100 µM (inactive) in assay [4]; 49.3 µM (inactive) in assay [5]; 88.3 µM (inactive) in [6]. Further, the GI50 in assay [7] is 21.4 µM (inactive); in [8], 74.8 µM (inactive); in [9], > 30.8 µM (inactive); in assay [10], > 100 µM (inactive); in [11], > 100 µM (inactive); in [12], 99.5 µM (inactive). For the same molecule, the GI50 in [13] is 74 µM (inactive); in assay [14], > 100 µM (inactive); in assay [15], 10 µM (inactive); in assay [16] it was 6.44 µM (inactive); in [17], 14.3 µM (inactive); in assay [18], 53.8 µM (inactive). Moreover, the GI50 is > 100 µM (inactive) in [19] and > 94.2 µM (inactive) in assay [20].
`Nc1cc2c(nnn2C2OC(COCc3ccccc3)C(OCc3ccccc3)C2OCc2ccccc2)c(=O)[nH]1` (stereo not given): the GI50 in assay [1] is 6.75 µM (inactive); in assay [2] it was 10.3 µM (inactive); in assay [3], 37.8 µM (inactive); in assay [4], 14.1 µM (inactive); in assay [5], 11.5 µM (inactive); in assay [6] it was 17.7 µM (inactive). The GI50 in assay [7] is 5.9 µM (inactive); in [8], 37 µM (inactive); in [9], 25.8 µM (inactive); in assay [10], 13.5 µM (inactive); in assay [11], > 100 µM (inactive); in assay [12] it was 33.3 µM (inactive). The GI50 in assay [13] was 9.86 µM (inactive); in [14], 18.7 µM (inactive); in [15], 27.6 µM (inactive); in assay [16] it was 48.8 µM (inactive); in assay [17] it was 14.2 µM (inactive); in [18] it was 10.6 µM (inactive). Also, the figures for the GI50 in assay [19] and in [20] were 33.1 µM (inactive) and 9.59 µM (inactive), respectively.
Turning to `C[C@@]1(O)C2CC3CC1(c1ccccc1)CC(/C3=N/O)/C2=N\O` (stereo not given in full), the GI50 in assay [1], in assay [2], in assay [3], in assay [4], in [5] and in assay [6] was > 100 µM (inactive) in each case. The GI50 in [7], in [8], in assay [9], in assay [10], in [11] and in [12] was > 100 µM (inactive) throughout. Further, the GI50 in [13], in assay [14], in [15], in assay [16], in assay [17] and in assay [18] was > 100 µM (inactive) each time. For the same molecule, the GI50 in [19] and in [20] was > 100 µM (inactive) throughout.
As for `Nc1ccc(S(=O)(=O)Nc2ccc(Nc3c4ccccc4nc4ccccc34)cc2)cc1`, the GI50 in assay [1] was 0.316 µM (active); in assay [2], < 0.01 µM (active); in assay [3], < 0.0119 µM (active); in assay [4], 0.015 µM (active); in [5], < 0.01 µM (active); in assay [6], 0.0127 µM (active). Besides, the GI50 was 0.0637 µM (active) in [7]; 0.0485 µM (active) in assay [8]; 0.0158 µM (active) in [9]; 0.0298 µM (active) in assay [10]; 4.83 µM (inactive) in [11]; 0.0174 µM (active) in [12]. The GI50 in assay [13] was 0.0154 µM (active); in assay [14] it was 0.245 µM (active); in assay [15], 0.164 µM (active); in assay [16] it was 0.0538 µM (active); in assay [17], 0.198 µM (active); in assay [18] it was 0.165 µM (active). In addition, the GI50 in [19] was 0.769 µM (active); in assay [20], < 0.01 µM (active).
As for `COc1ccc2c(c1)c1nn(CCN3CCCCC3)c3ccc4c(=O)n(CCN(C)C)c(=O)n2c4c13`, the GI50 in assay [1] was < 0.0164 µM (active); in assay [2] it was < 0.01 µM (active); in assay [3], < 0.01 µM (active); in [4], < 0.01 µM (active); in assay [5] it was < 0.01 µM (active); in [6], < 0.01 µM (active). Also, the GI50 in assay [7] is < 0.0175 µM (active); in assay [8], < 0.01 µM (active); in assay [9], < 0.01 µM (active); in assay [10], 0.0188 µM (active); in [11] it was < 0.153 µM (active); in assay [12], 0.565 µM (active). Besides, the GI50 in [13] was < 0.01 µM (active); in [14], 0.0151 µM (active); in assay [15] it was < 0.0105 µM (active); in assay [16] it was < 0.022 µM (active); in [17], < 0.01 µM (active); in assay [18] it was < 0.01 µM (active). In addition, the GI50 in [19] and in assay [20] was < 0.01 µM (active) in each case.
On to `CCCCCCCC1(N=[N+]=[N-])C(=O)Nc2ccccc2C1=O` (stereo not given), for which the GI50 in assay [1] is 12.6 µM (inactive); in assay [2], 17.1 µM (inactive); in [3], 17.7 µM (inactive); in assay [4], 13.3 µM (inactive); in [5], 24.2 µM (inactive); in [6] it was 17.3 µM (inactive). In addition, the GI50 is 14.6 µM (inactive) in assay [7]; 12.4 µM (inactive) in [8]; 14 µM (inactive) in assay [9]; 17.7 µM (inactive) in assay [10]; 18.9 µM (inactive) in assay [11]; 15.7 µM (inactive) in [12]. In addition, the GI50 is 15.1 µM (inactive) in assay [13]; 16.1 µM (inactive) in assay [14]; 18.7 µM (inactive) in [15]; 0.971 µM (active) in assay [16]; 22.6 µM (inactive) in assay [17]; 17.3 µM (inactive) in [18]. The GI50 in assay [19] is 12.1 µM (inactive); in assay [20] it was 18.7 µM (inactive).
